For one assay, the system named is Colon26 tumor cells. The experiment in a line: Colon26 tumor growth, combination with cyclophosphamide (Example 8). The settings on record: anti-SEMA4D 50 mg/kg IP weekly; cyclophosphamide 50 mg/kg IP days 12 and 20; endpoint 1000 mm3. The assay is classed as in vivo, Balb/c mice.
Another assay deals with Colon26. The experiment in a line: Summary of tumor regressions in Colon26 model (Example 13, FIG. 13). To be noted: summary of experiments (FIG. 13). It is filed as in vivo, mice. The source says:
Experimental Design. […] The experiment design of the respective experiments is summarized in the above Examples.

Method for Colon26 tumor cells: Experimental Design. 5×10^5 Colon26 tumor cells were implanted subcutaneously into the flank of female Balb/c mice. […] There were 20 mice per group. Tumors were measured with calipers 3×/week starting 5 days post implant. Animals were sacrificed when tumor volume reached 1000 mm3.
Tumor growth was measured by calipers and measurements were used to calculate tumor volume using the formula (w^2×l)/2, where w=width, smaller measurement, and l=length, in mm, of the tumor.
Regression is the lack of palpable tumor, defined by a tumor measuring <50 mm3 for at least two consecutive measurements.

Take `O=P1(N(CCCl)CCCl)NCCCO1` (centres unmarked) [cyclophosphamide]: in the assay with Colon26 tumor cells, the “Tumor Growth Delay (TGD)” value is 96%. In the assay on Colon26, this compound registered a tumor regression of 10%.
